Measurements from US9403756B2, “N-phenyl anthranilic acid derivatives and uses thereof” (Ramot at Tel-Aviv University Ltd., priority 2007, dated 2016).

What was measured:
[1] = system: maximal electroshock seizure model (MES) in ICR mice; assay: Maximal electroshock seizure test (MES); format: in vivo; conditions: Mus musculus, ip; mice; intraperitoneal, 30 minutes before electroshock; 50 mA, 0.2 sec; read-out: ED50, protection against tonic extension caused by MES
Experimental: The anti-convulsant effect was measured by the maximal electroshock seizure model (MES) in ICR mice as previously described. The procedures followed for experimentation and maintenance of the animals were approved by the animal research ethics committee of Tel Aviv University and in accordance with the Guide for the Care and Use of Laboratory Animals (1996, National Academy of Sciences, Washington D.C.). Briefly, maximal electroshock was induced in adult mice by means of two transcorneal electrodes delivering an alternative current of 50 mA at 60 Hz for 0.2 sec using rodent shocker (Hugo Sachs Electronik, type 221). […] The compounds, dissolved in 0.9% saline, were administered intraperitoneally 30 minutes before the electroshock was performed. Animals failing to show tonic hind limb extension were scored as protected and were expressed in percentage.

KCNQ2 mutant S121A = biological target: T1, KCNQ2 mutant S121A (Homo sapiens, UniProt O43526, S121A); assay: KCNQ2 S1-S2 mutant S121A in CHO cells; format: cell-based; conditions: 25 μM NH29
T1 construct: expressed in transfected cells; host or cells: CHO cells
Text: (§1) FIGS. 12A-F present the potentiating effect of NH29, an exemplary channel opener compound according to embodiments of the present invention, on selected KCNQ2 mutants. Shown are bar diagrams comparing the potentiating effect of NH29 on native KCNQ2 and KCNQ2 mutants, wherein the mutated amino acids are located at the S1-S2 helix region (FIG. 12A) or S4 helix region (FIG. 12D) and wherein the opener effect is expressed as percent of the control current in the absence of the opener. For comparison, marked as a green line, is the observed current increase of native KCNQ2 by NH29. FIGS. 12B 12C, 12E and 12F present representative traces recorded from CHO cell transfected with the KCNQ2 mutant S122A, S121A, L206C and R201A respectively, before and after external application of 25 μM of NH29 and wherein the membrane potential was stepped from −90 mV holding potential to −40 mV for 1.5 seconds pulse duration.
(§2) Voltage-clamp recordings in CHO cells were performed, using the whole-cell configuration of the patch-clamp technique. Signals were amplified using an Axopatch 200B patch-clamp amplifier (Molecular Devices, Sunnyvale, Calif.), sampled at 2 kHz and filtered at 800 Hz via a 4-pole Bessel low pass filter. […] Series resistances (3-13 MΩ) were compensated (75-90%) and periodically monitored.

KCNQ2 mutant R207W = biological target: T2, KCNQ2 mutant R207W (Homo sapiens, UniProt O43526, R207W); format: cell-based
T2 construct: expressed in transfected cells; host or cells: CHO cells
Text: FIGS. 10A-D present the potentiating effect of NH29, an exemplary channel opener compound according to embodiments of the present invention, on wild type KCNQ2 (FIGS. 10A and 10B) and R207W mutant (FIGS. 10C and 10D) channels, as expressed in activation curve measurements, showing that NH29 left-shifts the activation curve (ΔV50) by −15.5 mV and −5.5 mV in the case of the wild-type and the mutant, respectively, and showing that NH29 enhances the current of wild-type and the mutant by about 3.4-fold (at −40 mV) and 1.5-fold (at −20 mV), respectively.
FIGS. 11A-F present the potentiating effect of NH29, an exemplary channel opener compound according to embodiments of the present invention, and Retigabine, on KCNQ2 mutants R207W and W236L mutant. Shown are representative traces recorded from CHO cell transfected with the KCNQ2 mutant R207W 0, 1 and 4-4.5 minutes after external application of 25 μM of NH29 and wherein the membrane potential was stepped from −90 mV holding potential to −20 mV for 1.5 seconds pulse duration (FIG. 11A), or 0, 1 and 4 minutes after external application of 25 μM of Retigabine wherein the membrane potential was stepped from −90 mV holding potential to −40 mV for 1.5 seconds pulse duration (FIG. 11B). FIGS. 11C and 11D show representative traces recorded from CHO cells transfected with the KCNQ2 mutant W236L 0, 1 and 6 minutes after external application of 25 μM of NH29 (FIG. 11C) or 0 and 5 minutes after external application of 10 μM of Retigabine (FIG. 11D) and wherein the membrane potential was stepped from −90 mV holding potential to −40 mV for 1.5 seconds pulse duration. FIG. 11E presents superimposed traces, showing the effects of Retigabine (RTG) and NH29 on the channel activity of KCNQ2 mutant W236L as measured at −40 mV; and FIG. 11F presents a bar diagram comparing the potentiating effect of NH29 and Retigabine on native KCNQ2 and KCNQ2 mutants, wherein the opener effect is expressed as percent of the control current in the absence of the opener.
(§3) Voltage-clamp recordings in CHO cells were performed, using the whole-cell configuration of the patch-clamp technique. Signals were amplified using an Axopatch 200B patch-clamp amplifier (Molecular Devices, Sunnyvale, Calif.), sampled at 2 kHz and filtered at 800 Hz via a 4-pole Bessel low pass filter. Data were acquired using pClamp 9.2 software (Molecular Devices) and an IBM compatible Pentium IV computer in conjunction with a DigiData 1322A interface (Molecular Devices). The patch pipettes were pulled from borosilicate glass (Warner Instrument Corp, USA) with a resistance of 2-5 MΩ. For K^+ current recordings in CHO cells, the intracellular pipette solution contained (in mM): 130 KCl, 1 MgCl2, 5 K2ATP, 5 EGTA, 10 HEPES, adjusted with KOH to pH 7.4 (290 mOsm). The extracellular solution contained (in mM): 140 NaCl, 4 KCl, 1.8 CaCl2, 1.2 MgCl2, 11 glucose, 5.5 HEPES, adjusted with NaOH to pH 7.4 (310 mOsm). Series resistances (3-13 MΩ) were compensated (75-90%) and periodically monitored.

KCNQ2 mutant I209L = biological target: T3, KCNQ2 mutant I209L (Homo sapiens, UniProt O43526, I209L); assay: KCNQ2 S4 mutant I209L; format: cell-based; conditions: NH29
T3 construct: expressed in transfected cells; host or cells: CHO cells
Text: as §1, §2

KCNQ2 mutant R198A = biological target: T4, KCNQ2 mutant R198A (Homo sapiens, UniProt O43526, R198A); assay: KCNQ2 S4 mutant R198A; format: cell-based; conditions: 25 μM NH29 (25 M [sic])
T4 construct: expressed in transfected cells
Text: as §1, §2

Kv1.2 = biological target: T5, Kv1.2 (Homo sapiens, UniProt P16389); assay: Kv channel selectivity, transfected CHO cells: Kv1.2; format: cell-based; conditions: for Fold current amplitude: 0 mV, transfected CHO cells
T5 construct: expressed in transfected cells; host or cells: CHO cells
Experimental: as §3
(§4) The selectivity of NH29 on other relevant Kv channels expressed in Xenopus oocytes was also studied, and the results are summarized in Table 3 below. The specificity of NH29 at 25 μM and 50 μM towards various Kv channels was tested in Xenopus oocytes, except for Kv1.2 which was checked in transfected CHO cells. The current amplitude of the various Kv channels was tested at the indicated voltages and the effect of the drugs was expressed as fold of the control amplitude measured under the same conditions in the absence of the drug. The data in Table 3 are expressed as mean±SEM of 5-7 separate experiments.

Kv7.2 = biological target: T6, Kv7.2 (Homo sapiens, UniProt O43526); assay: Kv channel selectivity, Xenopus oocytes: Kv7.2; format: cell-based; conditions: −40 mV
T6 construct: expressed in transfected cells; host or cells: Xenopus oocytes
Experimental: Voltage-clamp measurements in Xenopus oocytes were performed as previously described.
as §4

T2 sequence (O43526 whole entry R207W): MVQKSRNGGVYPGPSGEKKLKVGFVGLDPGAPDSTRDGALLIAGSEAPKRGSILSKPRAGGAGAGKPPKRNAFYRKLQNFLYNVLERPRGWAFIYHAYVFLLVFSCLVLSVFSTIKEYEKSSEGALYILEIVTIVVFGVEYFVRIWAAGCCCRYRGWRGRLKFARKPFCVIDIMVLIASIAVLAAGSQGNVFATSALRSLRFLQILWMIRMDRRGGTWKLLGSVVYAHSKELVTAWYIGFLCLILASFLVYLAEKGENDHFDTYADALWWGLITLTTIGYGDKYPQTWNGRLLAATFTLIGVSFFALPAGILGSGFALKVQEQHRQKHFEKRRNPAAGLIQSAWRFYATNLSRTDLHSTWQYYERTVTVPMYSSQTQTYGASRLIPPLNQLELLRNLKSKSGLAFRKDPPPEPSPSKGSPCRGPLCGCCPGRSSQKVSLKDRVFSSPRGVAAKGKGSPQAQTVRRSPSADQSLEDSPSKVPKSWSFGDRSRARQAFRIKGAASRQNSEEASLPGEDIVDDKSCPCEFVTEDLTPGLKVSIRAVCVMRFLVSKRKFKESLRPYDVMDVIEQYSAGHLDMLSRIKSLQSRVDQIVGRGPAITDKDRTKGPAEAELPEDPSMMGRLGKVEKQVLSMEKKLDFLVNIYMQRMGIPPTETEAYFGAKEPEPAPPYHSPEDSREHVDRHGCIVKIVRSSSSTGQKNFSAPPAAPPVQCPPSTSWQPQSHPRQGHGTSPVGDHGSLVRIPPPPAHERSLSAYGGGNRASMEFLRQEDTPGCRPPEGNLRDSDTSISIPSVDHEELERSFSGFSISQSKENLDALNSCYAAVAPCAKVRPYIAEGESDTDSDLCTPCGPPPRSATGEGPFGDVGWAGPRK
T5 sequence (P16389 whole entry): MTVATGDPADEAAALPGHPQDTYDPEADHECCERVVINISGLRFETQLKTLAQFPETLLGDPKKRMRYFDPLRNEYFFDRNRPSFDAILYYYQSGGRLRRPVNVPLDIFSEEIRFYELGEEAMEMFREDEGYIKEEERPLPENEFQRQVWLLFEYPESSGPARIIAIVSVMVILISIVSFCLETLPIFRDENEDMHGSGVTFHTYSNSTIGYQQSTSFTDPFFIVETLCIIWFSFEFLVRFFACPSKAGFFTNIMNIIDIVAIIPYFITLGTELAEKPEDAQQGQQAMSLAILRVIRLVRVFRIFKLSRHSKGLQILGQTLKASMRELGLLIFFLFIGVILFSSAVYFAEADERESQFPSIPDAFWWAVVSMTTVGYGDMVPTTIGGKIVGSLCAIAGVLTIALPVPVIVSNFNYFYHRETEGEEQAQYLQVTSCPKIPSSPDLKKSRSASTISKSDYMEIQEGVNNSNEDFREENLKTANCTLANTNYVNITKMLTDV
T6 sequence (O43526 whole entry): as the sequence (O43526 whole entry R207W) above, with W207R counted along it
T1 sequence (O43526 whole entry S121A): as the sequence (O43526 whole entry R207W) above, with S121A, W207R counted along it
T3 sequence (O43526 whole entry I209L): as the sequence (O43526 whole entry R207W) above, with W207R, I209L counted along it
T4 sequence (O43526 whole entry R198A): as the sequence (O43526 whole entry R207W) above, with R198A, W207R counted along it

| Structure (SMILES) | ED50 [1] [mg/kg] | fold activation of current (KCNQ2 mutant S121A) [fold] | effect of point mutation R207W on the opener effect (KCNQ2 mutant R207W; 25 μM) | fold enhancement of current (KCNQ2 mutant R207W; 25 μM NH29, at −20 mV) [fold] | left-shift of the activation curve (ΔV50) (KCNQ2 mutant R207W; NH29) [mV] | sensitivity to the activating effect compared to wild-type Kv7.2 (KCNQ2 mutant I209L) | fold enhancement of current (KCNQ2 mutant R198A) [fold] | Fold current amplitude (Kv1.2; 25 μM) [fold] | Fold current amplitude (Kv1.2; 50 μM) [fold] | inhibition at 50 µM (Kv1.2; CHO, 50 μM, read-out: inhibition of Kv1.2 current) [%] | Fold current amplitude (Kv7.2; 25 μM) [fold] | Fold current amplitude (Kv7.2; 50 μM) [fold] |
| --- | --- | --- | --- | --- | --- | --- | --- | --- | --- | --- | --- | --- |
| O=C(Cc1cc([N+](=O)[O-])ccc1Nc1c(Cl)cccc1Cl)OCCO [NH25] | 12 | – | – | – | – | – | – | – | – | – | – | – |
| O=C(Cc1cc([N+](=O)[O-])cc([N+](=O)[O-])c1Nc1c(Cl)cc([N+](=O)[O-])cc1Cl)NCCO [NH29] | – | 2 | completely abolished the opener effect | ~1.5 | −5.5 | significantly less sensitive | 1.6 | 0.9 ± 0.01 | 0.66 ± 0.03 | 34 | 3.5 ± 0.4 | 6.8 ± 0.7 |
